One molecule from patent US10717997B2, “Method for storing gaseous hydrogen through producing methanoate (formate)” (Johann Wolfgang Goethe-Universität, priority 2013, dated 2020) can be followed below.

SMILES strings stand for the structures. Entries after “also recorded” stand apart in the source; their conditions may differ.

The test relates to cell suspensions of A. woodii. The test can be described thus: Formate production by whole cell catalysis, cell suspensions of A. woodii converting H2 and CO2. In kind it is cell-based, Acetobacterium woodii. Conditions: ETH2120 30 μM. The method, then:
Cell suspensions of A. woodii (1 mg/ml) were incubated using a gas phase of 0.8×10^5 Pa H2 and 0.2×10^5 Pa CO2 (1A). Adding the Na^+ ionophore ETH2120 (30 μM) gives rise to the production of up to 8 mM formate and the production of acetate stopped (1B). For experiments with whole cells, the inventors used cell suspensions of A. woodii for the conversion of H2 and CO2 to formate. The energy metabolism of A. woodii is strictly sodium ion dependent, and the ATP synthase uses Na^+ as the coupling ion. Thus, by omitting sodium ions in the buffer or by adding sodium ionophores (the inventors used the ionophore ETH2120 in this study), it is possible to switch off the energy metabolism specifically. Cells suspended in imidazole buffer (50 mM imidazole, 20 mM MgSO4, 20 mM KCl, 4 mM DTE, pH 7.0) containing 20 mM NaCl converted H2+CO2 to acetate, and only small amounts of formate were produced from a gas phase of 0.8×10^5 Pa II2 and 0.2×10^5 CO2. […] In agreement with the results obtained from the purified enzyme, foimate production was also observed when hydrogen was absent and the electron donor was CO but with lower rates compared to hydrogen as electron donor.

Turning to `O=C(COc1ccccc1OCC(=O)N(C1CCCCC1)C1CCCCC1)N(C1CCCCC1)C1CCCCC1` [ETH2120, N,N,N′,N′-Tetracyclohexyl-1,2-phenylenedioxydiacetamide], the “production of formate (concentration reached)” value (A. woodii cell suspension (1 mg/ml), gas phase 0.8×10^5 Pa H2 and 0.2×10^5 Pa CO2) was “up to 8 mM”. In addition, the acetate production entry (A. woodii cell suspension (1 mg/ml), gas phase 0.8×10^5 Pa H2 and 0.2×10^5 Pa CO2, imidazole buffer with 20 mM NaCl) is “stopped; also recorded: ceased almost completely”. For the same molecule, the “initial rate of formate production” value (A. woodii cells in imidazole buffer with 20 mM NaCl, gas phase 0.8×10^5 Pa H2 and 0.2×10^5 CO2) was found to be 2 μmol/min×mg cell protein.
